{
  "source": "patent US20230309520A1",
  "about": "“AGE-RELATED HEARING LOSS ANIMAL MODEL AND CONSTRUCTION METHOD THEREFOR” (UNIVERSITY INDUSTRY FOUNDATION, YONSEI UNIVERSITY WONJU …, priority 2020, published 2023)",
  "key": {"SOD": {"system": "SOD", "assay": "Superoxide dismutase (SOD) activity test in serum", "format": "in vivo, C57BL/6 mice", "set-up": "unit not given here", "method": "Specifically, the blood was reacted in an anticoagulant tube at 25° C. (room temperature) for 30 minutes, and then centrifuged at 2,000 × g for 15 minutes at 4° C. to prepare purified serum. The purified serum was stored at -80° C. for one month and diluted 1:5 with sample buffer before analysis, and then the amount of SOD in the body was measured using an SOD assay kit (No. 706002, Cayman Che., MI, USA). The SOD assay kit is a kit that uses tetrazolium salt to detect superoxide radicals generated by xanthine oxidase and hypoxanthine. […] The amount of oxidative stress in serum was analyzed by analyzing the SOD activity test result in Experimental Example <1-5>."}, "[1]": {"assay": "Auditory brainstem response test (ABR-TEST), hearing threshold", "format": "in vivo, C57BL/6 mice", "settings": "for hearing threshold: hypoxia", "procedure": "The wave V reference value of ABR was determined by gradually attenuating the sound intensity in 5 dB steps from 80 dB SPL until the wave V and the noise floor were indistinguishable from the recorded traces. Data management and auditory brainstem response test were conducted using the TDT RZ6/BioSigRZ system (Tucker Davis Technologies, Alachua, FL, USA) in a noise attenuation chamber with a built-in Faraday box.\nElectrodes were disposed on the subcutaneous tissue of each mouse to collect data. […] An isothermal pad was used to maintain the body temperature of the mouse, and the ABR test was conducted every two weeks for stability of the experimental groups."}, "auditory hair cells": {"system": "auditory hair cells", "assay": "Hair cell survival and damage by Myo7a immunostaining of cochlear slices", "format": "in vivo, C57BL/6 mice", "settings": "normoxia; single condition", "procedure": "Specifically, an opening was made at the apex of the cochlear bone of the sacrificed mouse, and phosphate buffered saline at pH 7.4 containing 4% paraformaldehyde as a fixative was perfused at room temperature. The cochlea perfused with a fixative was immersed in Calci-Clear Rapid for 24 hours to demineralize, an OCT (Optimal Cutting Temperature) compound was inserted, and then the cochlea was cut into slices with a thickness of 2 to 5 µm using LEICA RM2145 (Leica Biosystems, Wetzlar, German). The cut cochlea was incubated in standard hematoxylin for 3 minutes and stained with eosin (H&E) for 60 seconds.\nSpecifically, the cochlear slice was fixed on a gelatin-coated slide having a thickness of 5 µm with 4% paraformaldehyde for 15 minutes and then dried at room temperature. The slice was incubated with 5% normal goat serum at room temperature for 1 hour to prevent nonspecific labeling, and incubated with primary antibody MY07A (1:200, ab3481, Abeam, UK) at 4° C. for 1 hour. […]\nThe images of auditory hair cells of all the cochlear slices were analyzed using a confocal microscope (Carl Zeiss Microscopy GmbH, Jena, Germany) and ZEN lite ver.2.3 (ZEN lite, Jena, Germany) software.\nThe survival rate was evaluated by analyzing Myo7a, a major protein present in auditory hair cells."}, "[2]": {"settings": "mouse"}},
  "data": [
    {"molecule": "O=C[C@H](O)[C@@H](O)[C@@H](O)[C@H](O)CO", "note": "[GI, D-galactose]", "values": [
      {"measurement": "amount of SOD in serum", "setting": "SOD; hypoxia, 0 M", "result": "0.5914 ±0.000"},
      {"measurement": "amount of SOD in serum", "setting": "SOD; hypoxia, 1 M", "result": "0.5627 ± 0.005"},
      {"measurement": "amount of SOD in serum", "setting": "SOD; hypoxia, 2 M", "result": "0.5463 ± 0.005"},
      {"measurement": "amount of SOD in serum", "setting": "SOD; hypoxia, 3 M", "result": "0.5695 ± 0.059"},
      {"measurement": "amount of SOD in serum", "setting": "SOD; normoxia, 0 M", "result": "0.5955 ± 0.017"},
      {"measurement": "amount of SOD in serum", "setting": "SOD; normoxia, 1 M", "result": "0.5463 ± 0.005"},
      {"measurement": "amount of SOD in serum", "setting": "SOD; normoxia, 2 M", "result": "0.5216 ± 0.005"},
      {"measurement": "amount of SOD in serum", "setting": "SOD; normoxia, 3 M", "result": "0.5148 ± 0.028"},
      {"measurement": "hearing threshold", "setting": "[1]; 8, 16, 24 kHz analysis, initial value (increased from)", "result": 30, "unit": "dB"},
      {"measurement": "hearing threshold", "setting": "[1]; 8, 16, 24 kHz analysis, value after 1 month (increased to)", "result": 60, "unit": "dB"},
      {"measurement": "hearing threshold", "setting": "[1]; 8 kHz, final value (increased to), 3 months", "result": "67 + 10.13 dB"},
      {"measurement": "hearing threshold", "setting": "[1]; 8 kHz, initial value (increased from)", "result": "34 + 3.76 dB"},
      {"measurement": "hearing threshold", "setting": "[1]; 16 kHz, final value (increased to), 3 months", "result": "60 + 7.33 dB"},
      {"measurement": "hearing threshold", "setting": "[1]; 16 kHz, initial value (increased from)", "result": "38 + 4.08 dB"},
      {"measurement": "change in hearing threshold compared to control group", "setting": "[1]; normoxia, 8, 16, and 24 kHz", "result": "do not change significantly"},
      {"measurement": "change in the hearing threshold", "setting": "[1]; normoxia, 8 kHz", "result": "no significant change"},
      {"measurement": "changes in the hearing thresholds", "setting": "[1]; normoxia, frequencies of 4 to 32 kHz, 3 months", "result": "no significant changes"},
      {"measurement": "damage to hair cells", "setting": "auditory hair cells", "result": "almost no damage to cells"},
      {"measurement": "Dermis Thickness", "setting": "[2]", "result": "348.5 ±85.9"}
    ]}
  ]
}
